Assay results reported in the kinase profiling compilation of Christmann-Franck et al. (2016).

How the values were obtained:
Details in all cases: compound 10.0 µM
[1] = tested on: EIF2AK4 KD2 (human), Q9P2K8 [S808G]
PLK1 (human) = PLK1 (human) (UniProt P53350)
CAMK2B (human) = CAMK2B (human) (UniProt Q13554)
EPHB6 (human) = EPHB6 (human) (UniProt O15197)
CDK11B (human) = CDK11B (human) (UniProt P21127)
CSNK1G1 (human) = CSNK1G1 (human) (UniProt Q9HCP0)
ICK (human) = ICK (human) (UniProt Q9UPZ9)
PRKAA2 (human) = PRKAA2 (human) (UniProt P54646)
PIP5K1A (human) = PIP5K1A (human) (UniProt Q99755)
MAPK7 (human) = MAPK7 (human) (UniProt Q13164)
WEE2 (human) = WEE2 (human) (UniProt P0C1S8)
ERBB3 (human) = ERBB3 (human) (UniProt P21860)
PHKG1 (human) = PHKG1 (human) (UniProt Q16816)
PKN1 (human) = PKN1 (human) (UniProt Q16512)
INSRR (human) = INSRR (human) (UniProt P14616)
RAF1 (human) = RAF1 (human) (UniProt P04049)
KIT (human) = KIT (human) (UniProt P10721)
RPS6KA1 KD1 (human) = RPS6KA1 KD1 (human) (UniProt Q15418)
PRKCD (human) = PRKCD (human) (UniProt Q05655)
CIT (human) = CIT (human) (UniProt O14578)
CAMK1G (human) = CAMK1G (human) (UniProt Q96NX5)
STK38L (human) = STK38L (human) (UniProt Q9Y2H1)
MARK4 (human) = MARK4 (human) (UniProt Q96L34)
NUAK1 (human) = NUAK1 (human) (UniProt O60285)
BMPR1B (human) = BMPR1B (human) (UniProt O00238)
EPHB2 (human) = EPHB2 (human) (UniProt P29323)
CDK3 (human) = CDK3 (human) (UniProt Q00526)
MAPK14 (human) = MAPK14 (human) (UniProt Q16539)
VRK2 (human) = VRK2 (human) (UniProt Q86Y07)
LTK (human) = LTK (human) (UniProt P29376)
PIP4K2C (human) = PIP4K2C (human) (UniProt Q8TBX8)
STK33 (human) = STK33 (human) (UniProt Q9BYT3)
CSNK1D (human) = CSNK1D (human) (UniProt P48730)
PLK4 (human) = PLK4 (human) (UniProt O00444)
BLK (human) = BLK (human) (UniProt P51451)
OXSR1 (human) = OXSR1 (human) (UniProt O95747)
CDK16 (human) = CDK16 (human) (UniProt Q00536)
TNNI3K (human) = TNNI3K (human) (UniProt Q59H18)
GSK3B (human) = GSK3B (human) (UniProt P49841)
NLK (human) = NLK (human) (UniProt Q9UBE8)
TEC (human) = TEC (human) (UniProt P42680)
PAK4 (human) = PAK4 (human) (UniProt O96013)

Sequence of PRKCD (human) (Q05655 whole entry, looked up): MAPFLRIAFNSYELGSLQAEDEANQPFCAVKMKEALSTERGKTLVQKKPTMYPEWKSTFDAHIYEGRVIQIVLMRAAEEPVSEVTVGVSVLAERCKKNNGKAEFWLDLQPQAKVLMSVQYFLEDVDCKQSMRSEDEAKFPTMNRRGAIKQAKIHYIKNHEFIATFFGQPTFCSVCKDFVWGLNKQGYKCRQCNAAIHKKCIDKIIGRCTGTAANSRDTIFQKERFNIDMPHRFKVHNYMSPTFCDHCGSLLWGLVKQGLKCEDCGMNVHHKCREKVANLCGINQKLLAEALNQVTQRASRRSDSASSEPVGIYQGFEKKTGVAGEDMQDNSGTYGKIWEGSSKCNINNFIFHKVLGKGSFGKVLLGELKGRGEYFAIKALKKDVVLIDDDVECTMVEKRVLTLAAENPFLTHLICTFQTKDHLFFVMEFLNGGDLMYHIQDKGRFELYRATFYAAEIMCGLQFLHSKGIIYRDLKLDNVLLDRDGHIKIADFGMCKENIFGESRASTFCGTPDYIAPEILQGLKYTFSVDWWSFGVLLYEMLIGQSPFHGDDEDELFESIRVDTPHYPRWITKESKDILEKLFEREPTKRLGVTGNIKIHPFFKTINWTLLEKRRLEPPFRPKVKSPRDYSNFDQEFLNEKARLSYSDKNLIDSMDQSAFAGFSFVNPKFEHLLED
Sequence of TNNI3K (human) (Q59H18 whole entry, looked up): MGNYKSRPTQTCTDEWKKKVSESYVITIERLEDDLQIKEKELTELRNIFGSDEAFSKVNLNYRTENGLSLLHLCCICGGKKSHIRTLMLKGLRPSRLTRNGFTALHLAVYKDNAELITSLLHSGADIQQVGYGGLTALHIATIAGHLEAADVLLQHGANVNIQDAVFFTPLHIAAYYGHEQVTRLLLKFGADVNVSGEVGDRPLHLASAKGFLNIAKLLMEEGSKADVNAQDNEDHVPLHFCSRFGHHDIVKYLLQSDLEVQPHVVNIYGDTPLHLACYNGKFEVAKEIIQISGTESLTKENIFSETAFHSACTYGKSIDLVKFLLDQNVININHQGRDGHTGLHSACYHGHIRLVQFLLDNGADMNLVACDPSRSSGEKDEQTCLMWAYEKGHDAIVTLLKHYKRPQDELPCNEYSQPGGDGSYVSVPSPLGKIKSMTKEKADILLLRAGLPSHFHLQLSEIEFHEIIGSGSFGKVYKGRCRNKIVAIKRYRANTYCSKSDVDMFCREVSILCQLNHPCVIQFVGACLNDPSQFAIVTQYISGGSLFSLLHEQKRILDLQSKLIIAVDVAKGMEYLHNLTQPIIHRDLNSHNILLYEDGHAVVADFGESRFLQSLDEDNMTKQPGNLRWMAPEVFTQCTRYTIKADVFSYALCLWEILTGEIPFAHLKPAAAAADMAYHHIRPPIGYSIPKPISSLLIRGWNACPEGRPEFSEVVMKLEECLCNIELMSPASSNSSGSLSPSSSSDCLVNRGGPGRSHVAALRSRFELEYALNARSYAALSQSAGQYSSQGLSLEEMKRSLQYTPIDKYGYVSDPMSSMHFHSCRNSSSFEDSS
Sequence of PRKAA2 (human) (P54646 whole entry, looked up): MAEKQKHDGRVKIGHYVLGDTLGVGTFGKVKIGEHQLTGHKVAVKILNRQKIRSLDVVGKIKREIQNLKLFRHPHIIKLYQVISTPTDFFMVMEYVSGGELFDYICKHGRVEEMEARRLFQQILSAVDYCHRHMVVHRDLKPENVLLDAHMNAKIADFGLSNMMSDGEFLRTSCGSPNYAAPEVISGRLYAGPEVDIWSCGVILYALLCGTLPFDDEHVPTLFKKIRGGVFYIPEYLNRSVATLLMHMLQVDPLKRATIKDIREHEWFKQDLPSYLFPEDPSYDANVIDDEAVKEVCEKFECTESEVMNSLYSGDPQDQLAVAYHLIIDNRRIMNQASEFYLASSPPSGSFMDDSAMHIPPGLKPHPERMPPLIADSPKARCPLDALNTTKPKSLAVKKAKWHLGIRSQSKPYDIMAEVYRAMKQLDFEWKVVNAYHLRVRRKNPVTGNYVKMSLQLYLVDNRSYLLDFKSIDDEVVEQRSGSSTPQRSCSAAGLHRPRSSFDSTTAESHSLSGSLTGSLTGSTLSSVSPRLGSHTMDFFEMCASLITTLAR
Sequence of EIF2AK4 KD2 (human), Q9P2K8 [S808G] (Q9P2K8 whole entry S808G, looked up): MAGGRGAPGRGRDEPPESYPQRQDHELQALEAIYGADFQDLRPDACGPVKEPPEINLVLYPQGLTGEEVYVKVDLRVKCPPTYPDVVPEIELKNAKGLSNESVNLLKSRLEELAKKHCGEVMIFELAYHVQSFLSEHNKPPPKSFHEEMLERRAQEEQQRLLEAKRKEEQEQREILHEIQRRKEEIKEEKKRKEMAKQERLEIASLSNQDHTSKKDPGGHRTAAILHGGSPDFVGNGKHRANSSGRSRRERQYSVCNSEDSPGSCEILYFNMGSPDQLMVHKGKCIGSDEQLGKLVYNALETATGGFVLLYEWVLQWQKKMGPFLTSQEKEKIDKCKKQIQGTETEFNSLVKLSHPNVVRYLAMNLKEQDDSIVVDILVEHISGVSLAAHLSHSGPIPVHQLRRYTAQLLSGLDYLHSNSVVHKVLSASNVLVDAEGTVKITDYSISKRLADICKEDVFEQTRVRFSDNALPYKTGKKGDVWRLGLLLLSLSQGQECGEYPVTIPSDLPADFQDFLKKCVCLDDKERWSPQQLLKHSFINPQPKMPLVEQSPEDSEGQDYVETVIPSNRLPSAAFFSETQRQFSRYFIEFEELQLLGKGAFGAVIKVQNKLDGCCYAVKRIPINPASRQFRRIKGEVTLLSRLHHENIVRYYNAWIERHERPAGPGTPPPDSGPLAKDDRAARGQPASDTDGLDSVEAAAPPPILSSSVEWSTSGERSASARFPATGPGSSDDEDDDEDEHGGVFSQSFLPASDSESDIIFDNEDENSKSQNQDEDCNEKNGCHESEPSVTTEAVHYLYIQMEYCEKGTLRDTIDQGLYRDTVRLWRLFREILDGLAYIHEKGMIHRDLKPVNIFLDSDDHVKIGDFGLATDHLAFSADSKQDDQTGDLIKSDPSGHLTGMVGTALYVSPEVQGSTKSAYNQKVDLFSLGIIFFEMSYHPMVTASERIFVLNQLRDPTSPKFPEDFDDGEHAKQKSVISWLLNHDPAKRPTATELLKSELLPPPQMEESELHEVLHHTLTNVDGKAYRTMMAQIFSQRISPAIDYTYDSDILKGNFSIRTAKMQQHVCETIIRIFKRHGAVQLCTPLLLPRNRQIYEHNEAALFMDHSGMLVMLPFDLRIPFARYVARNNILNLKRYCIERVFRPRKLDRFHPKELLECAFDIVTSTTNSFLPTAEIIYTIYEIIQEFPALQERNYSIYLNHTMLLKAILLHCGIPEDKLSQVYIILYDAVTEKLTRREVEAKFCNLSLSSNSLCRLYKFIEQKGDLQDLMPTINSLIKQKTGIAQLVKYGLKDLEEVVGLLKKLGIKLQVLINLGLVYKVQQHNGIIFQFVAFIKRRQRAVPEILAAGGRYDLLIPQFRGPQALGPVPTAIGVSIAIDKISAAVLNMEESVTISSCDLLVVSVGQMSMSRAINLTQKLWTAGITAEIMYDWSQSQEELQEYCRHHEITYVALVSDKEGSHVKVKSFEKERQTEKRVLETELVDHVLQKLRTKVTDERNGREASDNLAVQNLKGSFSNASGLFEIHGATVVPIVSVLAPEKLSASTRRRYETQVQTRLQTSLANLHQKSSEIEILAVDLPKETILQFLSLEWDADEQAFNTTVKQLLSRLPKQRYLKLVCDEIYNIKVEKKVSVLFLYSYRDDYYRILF
Sequence of MAPK7 (human) (Q13164 whole entry, looked up): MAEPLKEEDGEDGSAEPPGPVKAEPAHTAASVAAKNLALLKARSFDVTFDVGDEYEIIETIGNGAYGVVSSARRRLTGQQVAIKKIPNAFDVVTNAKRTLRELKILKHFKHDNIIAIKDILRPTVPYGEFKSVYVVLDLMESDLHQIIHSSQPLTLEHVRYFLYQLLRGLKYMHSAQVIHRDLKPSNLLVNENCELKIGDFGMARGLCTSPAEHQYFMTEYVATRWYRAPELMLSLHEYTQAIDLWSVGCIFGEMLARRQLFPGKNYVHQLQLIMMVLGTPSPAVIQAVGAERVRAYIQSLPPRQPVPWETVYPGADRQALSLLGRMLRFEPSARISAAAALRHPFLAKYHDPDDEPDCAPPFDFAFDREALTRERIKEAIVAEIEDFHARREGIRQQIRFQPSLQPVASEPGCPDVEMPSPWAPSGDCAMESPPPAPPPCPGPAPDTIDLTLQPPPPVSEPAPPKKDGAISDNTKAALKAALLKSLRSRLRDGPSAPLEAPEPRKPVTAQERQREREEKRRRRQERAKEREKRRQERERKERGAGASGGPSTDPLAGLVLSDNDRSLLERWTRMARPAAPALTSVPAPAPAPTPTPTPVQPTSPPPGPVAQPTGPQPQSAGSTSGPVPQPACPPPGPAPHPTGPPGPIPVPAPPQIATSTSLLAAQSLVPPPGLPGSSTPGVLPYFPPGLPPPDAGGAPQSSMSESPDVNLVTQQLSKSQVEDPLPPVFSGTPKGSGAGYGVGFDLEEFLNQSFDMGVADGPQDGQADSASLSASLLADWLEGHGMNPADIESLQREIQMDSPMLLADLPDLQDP
Sequence of CAMK1G (human) (Q96NX5 whole entry, looked up): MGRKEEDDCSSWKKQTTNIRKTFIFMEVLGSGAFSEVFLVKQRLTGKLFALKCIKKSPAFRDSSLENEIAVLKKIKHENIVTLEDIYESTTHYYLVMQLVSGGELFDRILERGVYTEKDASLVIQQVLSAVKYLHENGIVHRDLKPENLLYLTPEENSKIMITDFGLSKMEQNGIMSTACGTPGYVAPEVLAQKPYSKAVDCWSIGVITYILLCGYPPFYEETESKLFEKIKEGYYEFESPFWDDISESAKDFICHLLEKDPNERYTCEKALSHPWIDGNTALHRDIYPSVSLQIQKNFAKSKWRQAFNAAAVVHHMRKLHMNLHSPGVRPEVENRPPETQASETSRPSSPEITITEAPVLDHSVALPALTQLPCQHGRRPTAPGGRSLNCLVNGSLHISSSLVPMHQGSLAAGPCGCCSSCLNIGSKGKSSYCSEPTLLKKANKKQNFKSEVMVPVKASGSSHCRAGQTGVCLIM

## CNC(=O)c1cc(Oc2ccc(NC(=O)Nc3ccc(Cl)c(C(F)(F)F)c3)cc2)ccn1
[1]
  per cent of control: 60%
PLK1 (human)
  per cent of control: 100%
CAMK2B (human)
  per cent of control: 96%
EPHB6 (human)
  per cent of control: 2.4%
CDK11B (human)
  per cent of control: 93%
CSNK1G1 (human)
  per cent of control: 100%
ICK (human)
  per cent of control: 100%
PRKAA2 (human)
  per cent of control: 60%
PIP5K1A (human)
  per cent of control: 100%
MAPK7 (human)
  per cent of control: 81%
WEE2 (human)
  per cent of control: 100%
ERBB3 (human)
  per cent of control: 70%
PHKG1 (human)
  per cent of control: 73%
PKN1 (human)
  per cent of control: 100%
INSRR (human)
  per cent of control: 86%
RAF1 (human)
  per cent of control: 0.7%
KIT (human)
  per cent of control: 0%
RPS6KA1 KD1 (human)
  per cent of control: 84%
PRKCD (human)
  per cent of control: 100%
CIT (human)
  per cent of control: 20%
CAMK1G (human)
  per cent of control: 87%
STK38L (human)
  per cent of control: 95%
MARK4 (human)
  per cent of control: 93%
NUAK1 (human)
  per cent of control: 74%
BMPR1B (human)
  per cent of control: 93%
EPHB2 (human)
  per cent of control: 12%
CDK3 (human)
  per cent of control: 41%
MAPK14 (human)
  per cent of control: 0.1%
VRK2 (human)
  per cent of control: 100%
LTK (human)
  per cent of control: 76%
PIP4K2C (human)
  per cent of control: 34%
STK33 (human)
  per cent of control: 6%
CSNK1D (human)
  per cent of control: 84%
PLK4 (human)
  per cent of control: 46%
BLK (human)
  per cent of control: 28%
OXSR1 (human)
  per cent of control: 100%
CDK16 (human)
  per cent of control: 68%
TNNI3K (human)
  per cent of control: 2.4%
GSK3B (human)
  per cent of control: 92%
NLK (human)
  per cent of control: 19%
TEC (human)
  per cent of control: 100%
PAK4 (human)
  per cent of control: 100%

## CNC(=O)c1cc(Oc2ccc(NC(=O)Nc3ccc(Cl)c(C(F)(F)F)c3)cc2)cc[n+]1[O-]
[1]
  per cent of control: 70%
PLK1 (human)
  per cent of control: 100%
CAMK2B (human)
  per cent of control: 89%
EPHB6 (human)
  per cent of control: 1.8%
CDK11B (human)
  per cent of control: 100%
CSNK1G1 (human)
  per cent of control: 96%
ICK (human)
  per cent of control: 100%
PRKAA2 (human)
  per cent of control: 49%
PIP5K1A (human)
  per cent of control: 100%
MAPK7 (human)
  per cent of control: 65%
WEE2 (human)
  per cent of control: 94%
ERBB3 (human)
  per cent of control: 62%
PHKG1 (human)
  per cent of control: 77%
PKN1 (human)
  per cent of control: 97%
INSRR (human)
  per cent of control: 86%
RAF1 (human)
  per cent of control: 0.45%
KIT (human)
  per cent of control: 0%
RPS6KA1 KD1 (human)
  per cent of control: 91%
PRKCD (human)
  per cent of control: 100%
CIT (human)
  per cent of control: 27%
CAMK1G (human)
  per cent of control: 76%
STK38L (human)
  per cent of control: 100%
MARK4 (human)
  per cent of control: 100%
NUAK1 (human)
  per cent of control: 100%
BMPR1B (human)
  per cent of control: 81%
EPHB2 (human)
  per cent of control: 19%
CDK3 (human)
  per cent of control: 13%
MAPK14 (human)
  per cent of control: 0%
VRK2 (human)
  per cent of control: 100%
LTK (human)
  per cent of control: 73%
PIP4K2C (human)
  per cent of control: 16%
STK33 (human)
  per cent of control: 6.9%
CSNK1D (human)
  per cent of control: 91%
PLK4 (human)
  per cent of control: 5.2%
BLK (human)
  per cent of control: 11%
OXSR1 (human)
  per cent of control: 100%
CDK16 (human)
  per cent of control: 19%
TNNI3K (human)
  per cent of control: 2.4%
GSK3B (human)
  per cent of control: 79%
NLK (human)
  per cent of control: 11%
TEC (human)
  per cent of control: 68%
PAK4 (human)
  per cent of control: 100%
